This is an account of results in patent publication US8629277B2, “Styrenyl 1,2,4-oxadiazole compounds” (Piramal Enterprises Limited, priority 2010, dated 2014).

Molecules are shown by their SMILES.

The GI50 is the concentration giving 50% growth inhibition. A high value points to lower sensitivity of the cells.

Assay [1] deals with CRKL protein. Put plainly: Inhibition of phosphorylation of CRKL protein, Western blot, M351T cell line. The format is cell-based. To be noted: FIG. 6B. As for the experimental part: (§1) Phospho-CRKL monitoring has been recognized as a prognostic marker in CML patients treated with first and second generation Bcr-Abl inhibitors (Haematologica, 2008, 93, 5, 765-769). The assay was carried out using Western blot analysis according to the reference, Analytical Biochemistry, 1981, 112, 2, 195-203, with certain modifications.
(§2) Western blot analysis was performed to decipher the mechanism of action of compounds of the present invention. […] The cells were incubated in a humidified incubator for 2-4 h at 37° C. Subsequently, cells were treated with respective concentrations of the compounds. Cells were then incubated for 72 h. Following the incubation, cells were harvested, washed with ice-cold phosphate buffered saline (PBS) and lysed with cold Cell Lytic buffer (Sigma Aldrich) supplemented with complete protease inhibitor cocktail (Roche, Germany). The protein extracts were obtained after centrifugation at 14,000 rpm at 4° C. (30 min). Aliquots of the resulting extracts were analyzed for their protein content using Bradford Reagent (Sigma) as per the manufacturer's instructions. Equivalent protein samples (70 μg) were loaded on 10% Tris-glycine gels and resolved at 100 V for 2 h in a buffered solution (24.9 mM Tris base, 250 mM glycine, 0.1% SDS (sodium dodecyl sulfate)). […]

For another assay, the target named is T1, Ba/F3 Bcr-Abl/F317L (Homo sapiens, UniProt P00519, F317L, cells depend on it).
T1 construct: fused on or other part: P11274 (Breakpoint cluster region protein)
Nature of the assay: Cell proliferation and cytotoxicity CCK-8 assay. To be noted: mouse, 72 h. The format is cell-based. For orientation: Formazan colour is commonly taken as a measure of viable cells.

Assay [2] deals with CRKL protein. Put plainly: Inhibition of phosphorylation of CRKL protein, Western blot, E255V cell line. It is filed as cell-based. Particulars: 72 h, FIG. 5, FIG. 6B. The protocol:
as §1, §2

The target of the next assay is T2, Ba/F3 Bcr-Abl/Y253H (Homo sapiens, UniProt P00519, Y253H, cells depend on it).
T2 construct: fused on or other part: P11274 (Breakpoint cluster region protein)
Put plainly: Cell proliferation and cytotoxicity CCK-8 assay. Particulars: mouse, 72 h. It is filed as cell-based.

Assay [3] has as its system CRKL protein. Put plainly: Inhibition of phosphorylation of CRKL protein, Western blot, Y253H cell line. It is filed as cell-based. To be noted: FIG. 6B. As for the experimental part: as §1, §2
On the technique in general: Immunoblotting shows a protein as a band on a membrane.

For a further assay, the system named is TGFβ. Put plainly: TGFβ assay, Western blot analysis in Ba/F3 Bcr-Abl/T315I cells. The format is cell-based. Particulars: T315I cell line, 3×IC50, 72 h, FIG. 3. The protocol:
TGFβ is a prime candidate for maintaining the CML stem cells in a non-cycling state. […] TGFβ plays a vital role in the preservation of the malignant progenitor population, and is partially responsible for the resistance to treatments targeting Bcr-Abl observed in a proportion of CML patients.
The Western Blot assay was carried out as in reference, Analytical Biochemistry, 1981, 112, 2, 195-203.
as §2, with “Subsequently, cells were treated with respective concentrations of the compounds.” left out, “g” for “rpm”, “In all the experiments, equivalent amounts of” for “Equivalent”, “protein” for “protein samples”, “7.5%-10%” for “10%”

Another assay deals with T3, Ba/F3 Bcr-Abl/Q252H (Homo sapiens, UniProt P00519, Q252H, cells depend on it).
T3 construct: fused on or other part: P11274 (Breakpoint cluster region protein)
Put plainly: Cell proliferation and cytotoxicity CCK-8 assay. The format is cell-based. To be noted: mouse, 72 h.

The next assay has as its system K562. Nature of the assay: Cell proliferation and cytotoxicity CCK-8 assay. The format is cell-based, human. Particulars: Homo sapiens; imatinib sensitive cell line K562; CCK-8, 72 h; read-out: Inhibitory concentrations (IC50) K562.
A further assay relates to Ba/F3 Bcr-Abl/T315I. Nature of the assay: In-vivo efficacy in imatinib-resistant xenograft model in SCID mice. To be noted: 200 mpk b.i.d., p.o.
The target of a further assay is T4, Ba/F3 Bcr-Abl/H396P (Homo sapiens, UniProt P00519, H396P, cells depend on it).
T4 construct: fused on or other part: P11274 (Breakpoint cluster region protein)
Put plainly: Cell proliferation and cytotoxicity CCK-8 assay. It is filed as cell-based. Particulars: mouse, 72 h.

For `CCCc1noc(C=Cc2ccc(O)c(O)c2)n1` [Compound of Example 3, 4-[2-(3-Propyl-[1,2,4]oxadiazol-5-yl)-vinyl]-benzene-1,2-diol], the phospho-CRKL entry with CRKL protein [1] and in the assay with CRKL protein [3] was “inhibit” in each case. The GI50 at Ba/F3 Bcr-Abl/F317L turned out to be 1950 ± 210 nM; at Ba/F3 Bcr-Abl/Y253H, 1700 ± 780 nM; on Ba/F3 Bcr-Abl/Q252H it was 2600 ± 840 nM; at Ba/F3 Bcr-Abl/H396P, 2000 ± 980 nM. In the assay with CRKL protein [2], the “phosphorylation of CRKL protein (Tyr-207)” value was “inhibit”. In the assay on TGFβ, the “p-Smad2 and p-Smad3, effector target molecules of TGFβ signaling” value was “strongly downregulated”. For the same compound, in the assay with K562, the IC50 fell in the range of 11000 to 100000 nM. The “Tumor growth inhibition percent (% GI) Ba/F3 Bcr-Abl/T315I” value in the assay on Ba/F3 Bcr-Abl/T315I was 54%.

Take `Oc1ccc(C=Cc2nc(Cc3ccccc3)no2)cc1O` [Compound of Example 4, 4-[2-(3-Benzyl-[1,2,4]oxadiazol-5-yl)-vinyl]-benzene-1,2-diol]: the GI50 at Ba/F3 Bcr-Abl/F317L came to 2850 ± 350 nM; at Ba/F3 Bcr-Abl/Y253H, 2500 ± 750 nM; on Ba/F3 Bcr-Abl/Q252H it was 3650 ± 650 nM; at Ba/F3 Bcr-Abl/H396P, 2600 ± 1200 nM. Moreover, the “p-Smad2 and p-Smad3, effector target molecules of TGFβ signaling” value in the assay on TGFβ is listed as “strongly downregulated”. Besides, the IC50 in the assay on K562 is 11000 to 100000 nM. Besides, in the assay on Ba/F3 Bcr-Abl/T315I, the “Tumor growth inhibition percent (% GI) Ba/F3 Bcr-Abl/T315I” value came to 65%.
